Values of other authors in patent publication US9579356B2, “Dietary supplements for reducing cholesterol levels” (RELIV INTERNATIONAL INC., priority 2006, dated 2017).

Key:
[1] = tested on: rats which were fed a high cholesterol diet
rats = details: dietary supplementation
[2] = tested on: patients with LDL-cholesterol levels exceeding 160 mg/dl; details: after eight weeks; policosanol 10 mg/day, lovastatin 20 mg/day, simvastatin 10 mg/day
[3] = tested on: individuals having initial total cholesterol levels exceeding 260 mg/dL; details: 15 grams daily, three weeks
[4] = tested on: individuals having total cholesterol levels ranging from 210 to 326 mg/dL; details: 3.5 g daily, after two weeks

## Oc1ccc(C=Cc2cc(O)cc(O)c2)cc1 [Resveratrol]
Human neutrophils
  leukotriene production: induce
[1]
  cholesterol and triglyceride liver deposition: inhibited
  low-density lipoprotein (LDL) cholesterol levels: lowered
  ratio of total cholesterol to high-density lipoprotein (HDL) cholesterol: reduced
  serum triglyceride levels: lowered

## O=C([O-])[C@@H](O)[C@@H](O)[C@H](O)[C@@H](O)C(=O)[O-].[Ca+2] [calcium D-glucarate]
rats
  lowering VLDL cholesterol: did not demonstrate similar effects
  lowering total triglycerides: did not demonstrate similar effects

## CC[C@H](C)C(=O)O[C@H]1C[C@@H](C)C=C2C=C[C@H](C)[C@H](CC[C@@H]3C[C@@H](O)CC(=O)O3)[C@H]21 [lovastatin]
[2]
  reduced LDL-cholesterol levels: about 22%

## O=C(O)[C@@H](O)[C@@H](O)[C@H](O)[C@@H](O)C(=O)[O-].[K+] [potassium hydrogen D-glucarate]
rats
  lowering VLDL cholesterol: effective
  lowering total triglycerides: effective

## beta-glucan
[3]
  reduced LDL cholesterol: about 23%
  reduced total cholesterol: about 19%
[4]
  reduction in total cholesterol: 5.4%
